The values that follow come from US9550976B2, “Methods for compact aggregation of dermal cells” (THE TRUSTEES OF COLUMBIA UNIVERSITY IN THE CITY OF NEW YORK, priority 2006, dated 2017).

The subject of experiment [1] is hair follicle morphogenesis in embryonic skin cultures. The experiment is described as follows: Mouse embryonic skin organ culture, effects of reduced HA on hair follicle morphogenesis. It is filed as cell-based. Conditions: for in vivo skin stage to which the cultured skin / follicles correspond: after 72 hr in culture of 14.5 dpc skin, histology and syndecan-1 pattern. The procedure: To study the effects of HA misexpression in the development of a HF, an embryonic skin organ culture model was utilized. To assess how representative this model was for investigating the role of HA distribution in vivo, the expression of CD44 and HA in the cultured embryonic skin was first investigated. Embryonic skin cultures were established using pre-hair follicle initiation (14.5 dpc) skin and were incubated for 72 hrs. The cultured skin hair placodes became visible after 24 hr in culture. After 72 hr, skins were removed from culture, sectioned, and the expression of both HA and CD44 were assessed (FIG. 19). The dermal condensate was negative for HA staining (red) while expressing CD44 (green). Expression of both proteins in the HF of the cultured backskin was virtually indiscernible from that of 16.5 dpc back skin in vivo (FIG. 19). The effects of HA synthesis downregulation of hair follicle morphogenesis was investigated. Embryonic skin was cultured for 72 hrs in the presence of BSA (control) or one of two HAS inhibitors, leflunomide (Lef) (50 nM) or 4-methylumbelliferone (30 mM). In the presence of BSA, CD44 was localized predominantly to the dermal condensate, while HA remained absent from the dermal condensate (FIG. 20). […] To ascertain whether this reduction was due to an actual inhibitory effect of Lef on hair follicle morphogenesis and development, cultured skin from all treatments and control groups were enzymatically split and the separated epidermis inverted to allow the visualization of the developing epidermal hair germs. […] To explore the effects of a global degradation of HA protein on hair follicle morphogenesis within the skin cultures, embryonic skin was cultured for 72 hrs in the presence of either BSA (control) or hyaluronanase (HAase) (25 units/ml). […] Following 72 hrs in culture, embryonic skin from the four treatments described above were cryo-embedded, sectioned, and stained with hematoxylin and eosin (H&E) for histological study. […] After 72 hr in culture, follicles corresponded to those found in 14.5 dpc skin in vivo, both histologically and in their syndecan-1 expression patterns (FIG. 22).

The next experiment concerns hair follicle formation. Particulars: whole skin organ culture; as previously shown (Kashiwagi 1997); cited from earlier work.
Setting [2] is: Lef 50 nM, 4-methylumbelliferone 30 mM.
[3] abbreviates: embryonic skin cultured 72 hrs, Lef 50 nM, 4-methylumbelliferone 30 mM, HAase 25 units/ml.
Setting [4] is: embryonic skin cultured 72 hrs, Lef 50 nM, 4-methylumbelliferone 30 mM, HAase 25 units/ml, vs BSA control.

Consider `Cc1cc(=O)oc2cc(O)ccc12` [4-methylumbelliferone], for which the “in vivo skin stage to which the cultured skin / follicles correspond” value in experiment [1] (setting [2]) is 16.5 dpc. In experiment [1] (embryonic skin cultured 72 hrs, 4-methylumbelliferone 30 mM, HAase 25 units/ml), the “Syndecan-1 expression (marker of the dermal condensation)” value was “normal hair follicle development”. The “histology (H&E) of cultured skin” value in experiment [1] (setting [3]) is on record as “indistinguishable from the control skin”. The “number of visible follicles on the surface of the skin” value in experiment [1] (setting [4]) is “no effect on the number of visible follicles”.

In the case of `Cc1oncc1C(=O)Nc1ccc(C(F)(F)F)cc1` [Lef, leflunomide], the “in vivo skin stage to which the cultured skin / follicles correspond” value in experiment [1] (setting [2]) worked out at 14.5 dpc. In addition, the “histology (H&E) of cultured skin” value in experiment [1] (setting [3]) is reported as “inhibition of follicle development”. The “number of visible follicles on the surface of the skin” value in experiment [1] (setting [4]) is reported as “reduction in the number of visible follicle on the surface of the skin”. The “size and number of epidermal hair germs on the inverted, enzymatically separated epidermis” value in experiment [1] (embryonic skin cultured 72 hrs, Lef 50 nM, HAase 25 units/ml, vs BSA control) is “smaller and sparser than those of the control”.

Regarding “EGF: growth factor used to inhibit hair follicle formation in skin organ culture (NSYPGCPSSYDGYCLNGGVCMHIESLDSYTCNCVIGYSGDRCQTRDLRWWELR; UniProt P01132 977-1029, looked up)”, the hair follicle formation entry in the experiment on hair follicle formation is recorded as “completely inhibited”.
